“And” between values parts separate entries of the source, which are not always exact repeats. Identical values can stand only once.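 Cells were grown in 96-well plates and exposed to each compound for 48 hours at five concentrations; endpoints were interpolated linearly between bracketing concentrations, or set to the highest concentration if not reached. GI50 is the concentration that inhibits growth by half. TGI: total growth inhibition.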

Holding throughout (assay): growth of human tumour cells (NCI), 48 h
Test [1] concerns T-47D breast.
The subject of test [2] is UACC-257 melanoma.
For test [3], the system named is OVCAR-3 ovarian.
In test [4] the test system is ACHN renal.
For test [5], the system named is NCI/ADR-RES ovarian.
Test [6] deals with SF-539 CNS.
Test [7] deals with RXF 393 renal.
Test [8] deals with SW-620 colon.

On to `Cc1ccc(C)c(C2NC(=O)c3ccccc3N2)c1` (stereo unspecified), for which the TGI in test [1] is more than 100 µM; in test [2], more than 100 µM; in test [3], 0.997 µM; in test [4], more than 89 µM; in test [5], 8.37 µM; in test [6], 3.07 µM. In addition, the TGI in test [7] is 14.3 µM; in test [8], more than 49.6 µM.

In the case of `COc1cc(Nc2nc3ccccc3cc2C(=O)Nc2ccc(F)c(F)c2)cc(OC)c1OC`, the GI50 in test [1] was 1.84 µM; in test [2], 2.6 µM; in test [3], 2.56 µM; in test [4], 2.51 µM; in test [5], 2.49 µM; in test [6], 3.65 µM. In addition, the results for the GI50 in test [7] and in test [8] were 2.73 µM and 3.53 µM, respectively. Further, the TGI in test [1] was 6.39 µM; in test [2] it was 6.28 µM; in test [3], 6.96 µM; in test [4] it was 7.59 µM; in test [5] it was 7.21 µM; in test [6], more than 100 µM. For the same compound, the TGI in test [7] is 7.98 µM; in test [8] it was more than 100 µM.

Turning to `CN1C(=O)N[C@H]2[C@@H]3NC(=O)c4ccc(Br)n4[C@@H]3C[C@]21O`, the GI50 was 0.0313 µM in test [1]; 0.108 µM in test [2]; 0.121 µM in test [3]; 0.187 µM in test [4]; 0.386 µM in test [5]; 0.0825 µM in test [6]. The GI50 in test [7] is 0.0565 µM; in test [8], 0.116 µM. The TGI in test [1] came out at 0.23 µM; in test [2] it was 1.52 µM; in test [3] it was 1.85 µM; in test [4], 2.93 µM; in test [5], 2.22 µM; in test [6], 0.447 µM. For the same compound, the values for the TGI in test [7] and in test [8] were 0.486 µM and 12.5 µM, respectively.

Consider `Cc1sc2c(c1C)C(c1ccc(Cl)cc1)=N[C@@H](CC(=O)OC(C)(C)C)c1nnc(C)n1-2`, for which the GI50 in test [1] was 0.342 µM and 0.214 µM; in test [2] it was 0.313 µM and 0.146 µM; in test [3], 1.24 µM and 0.498 µM; in test [4], 0.67 µM and 0.496 µM; in test [5], 0.506 µM and 0.396 µM; in test [6], 0.639 µM and 0.462 µM. Besides, the GI50 was 1.95 µM and 0.737 µM in test [7]; 10.9 µM and 4.09 µM in test [8]. Moreover, the TGI in test [1] was 18.8 µM and 19 µM; in test [2], 19.5 µM and 17 µM; in test [3] it was 18 µM and 15.6 µM; in test [4] it was 18.3 µM and 15.8 µM; in test [5], 24 µM and 20.9 µM; in test [6] it was 19.4 µM and 17.9 µM. The TGI is 19 µM and 9.28 µM in test [7]; 28.1 µM and 22.9 µM in test [8].

In the case of `Cc1cccc(C)c1NC(=O)Nc1ccc(S(N)(=O)=O)cc1`, the TGI in test [1], in test [2], in test [3], in test [4], in test [5] and in test [6] was more than 100 µM each time. Besides, the TGI in test [7] and in test [8] was more than 100 µM throughout.

As for `CN/N=C(\C)C(CN(C)C)C(c1ccccc1)c1c(O)c2ccccc2oc1=O` (stereo unspecified), the TGI in test [1], in test [2], in test [3], in test [4], in test [5] and in test [6] was more than 100 µM each time. In addition, the TGI in test [7] and in test [8] was more than 100 µM each time.

In the case of `CCCC(CCC)C(=O)OCC1(CO)C/C(=C\c2ccc(F)cc2)C(=O)O1` (stereo unspecified), the GI50 in test [1] is 13.2 µM; in test [2], 14.7 µM; in test [3], 17.1 µM; in test [4], 9.32 µM; in test [5], 13.9 µM; in test [6], 12 µM. Besides, the GI50 in test [7] is 15.6 µM; in test [8], 6.93 µM. Also, the TGI in test [1] turned out to be 30.1 µM; in test [2] it was 28.7 µM; in test [3], 31.2 µM; in test [4], 23.4 µM; in test [5], 33.4 µM; in test [6], 24.4 µM. The values for the TGI in test [7] and in test [8] were 36.6 µM and 20.7 µM, respectively.

Regarding `O=Cc1ccc(-c2ccc(-c3nc4ccccc4o3)cc2)o1`, the GI50 in test [1] is 34.8 µM; in test [2], 92.3 µM; in test [3], 24.1 µM; in test [4], 21.1 µM; in test [5], 18.3 µM; in test [6], 32.3 µM. Also, the GI50 is 22.6 µM in test [7] and 33 µM in test [8]. Also, the TGI in test [1] was more than 100 µM; in test [2] it was more than 100 µM; in test [3], 61.9 µM; in test [4] it was 58.2 µM; in test [5] it was 63.8 µM; in test [6], more than 100 µM. Besides, the TGI in test [7] was 54.5 µM; in test [8], more than 100 µM.

Take `Cc1cc(CC(C)CC(C)(C)C)n(O)c(=O)c1` (stereo unspecified) (tested in a mixture with another compound): the GI50 in test [1] is 0.725 µM; in test [2], 0.507 µM; in test [3] it was 0.745 µM; in test [4], 0.385 µM; in test [5], 0.373 µM; in test [6], 0.39 µM. Further, the GI50 in test [7] is 0.372 µM; in test [8], 0.478 µM. Moreover, the TGI in test [1] was more than 43.6 µM; in test [2], more than 100 µM; in test [3], 18.6 µM; in test [4], more than 37.6 µM; in test [5] it was 4.02 µM; in test [6] it was 13.2 µM. Also, the TGI in test [7] was 6.53 µM; in test [8], more than 81.1 µM.

Turning to `CCOC(=O)CC1C(COC(=O)NC)OC(n2cnc3c(NC(=O)Nc4ccccc4)ncnc32)C1O[Si](C)(C)C(C)(C)C` (stereo unspecified), the GI50 was 4.95 µM in test [1]; 20.8 µM in test [2]; 2.42 µM in test [3]; 5.92 µM in test [4]; 9.18 µM in test [5]; 11.5 µM in test [6]. Also, the GI50 was 2.94 µM in test [7] and 4.59 µM in test [8]. Further, the TGI was 84.7 µM in test [1]; more than 100 µM in test [2]; 5.6 µM in test [3]; more than 100 µM in test [4]; 30.6 µM in test [5]; 26.4 µM in test [6]. Also, the TGI was 12.4 µM in test [7] and 78.1 µM in test [8].

The values are drawn from PubChem BioAssay (NCI).
